Experimental data published in patent US20260325533A1, “CDK INHIBITOR COMPOUNDS” (ALEKSIA THERAPEUTICS, INC., priority 2023, published 2026).
Like-named read-outs stand apart in the source and are kept apart here.

How the values were obtained:
Assay type in all cases: biochemical
CDK2/CCNE1 = CDK2/CCNE1 (Homo sapiens, UniProt P24941); assay: CDK2 homogeneous time-resolved fluorescence (HTRF) kinase assay; conditions: CDK2/CCNE
In short: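 CDK2/CCNE1 (3 nM) preincubated 20 min at 23 °C with compound, then reacted 60 min at 23 °C with 1 mM ATP and 50 nM ULight-4E-BP1 (Thr37/46) peptide. Stopped with EDTA, phospho-peptide detected by Eu-anti-phospho antibody (665 nm or 665/615 ratio). IC50 from 11-point half-log titrations typically starting at 10 μM.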

CDK1/CCNB1 = CDK1/CCNB1 (Homo sapiens, UniProt P06493); assay: CDK1 homogeneous time-resolved fluorescence (HTRF) kinase assay; conditions: CDK1/CCNB
In short: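 Compounds, titrated 11 points in half-log steps typically from 10 μM, were incubated with enzyme for 20 min before ATP (1 mM) and ULight-labelled eIF4E-binding protein 1 peptide (50 nM) started a 60-min reaction at 23 °C. Phosphopeptide was detected by europium-antibody TR-FRET and IC50 values were derived.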

CDK4/CCND3 = CDK4/CCND3 (Homo sapiens, UniProt P11802); assay: CDK4 homogeneous time-resolved fluorescence (HTRF) kinase assay; conditions: CDK4/CCND
In short: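 Inhibition of CDK4/CCND3 (1.5 nM) was measured at high ATP (1 mM) using 50 nM ULight-labelled 4E-BP1 Thr37/46 peptide; detection used 2 nM europium anti-phospho antibody after EDTA quench. IC50 values came from 11-point half-log titrations typically starting at 10 μM.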

CDK6/CCND1 = CDK6/CCND1 (Homo sapiens, UniProt Q00534); assay: CDK6 homogeneous time-resolved fluorescence (HTRF) kinase assay; conditions: CDK6/CCND
In short: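 1 nM enzyme, 1 mM ATP, 50 nM ULight-4E-BP1 (Thr37/46) peptide, 1% DMSO; 20 min compound preincubation, 60 min reaction, 23 °C. EDTA stop, 2 nM Eu-anti-phospho-4E-BP1 antibody 60 min. TR-FRET 665 nm (or 665/615 ratio); IC50 from 11-point half-log titration, top 10 μM.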

[1] = x = IC50 >250 nM, read-out: CDK1/CCNB IC50 (>250 nM column)
[2] = x = IC50 >250 nM, read-out: CDK4/CCND IC50 (>250 nM column)
[3] = x = IC50 >250 nM, read-out: CDK6/CCND IC50 (>250 nM column)
[4] = x = IC50 25-250 nM, read-out: CDK2/CCNE IC50 (25-250 nM)
[5] = x = IC50 <25 nM, read-out: CDK2/CCNE IC50 (<25 nM)
[6] = x = IC50 25-250 nM, read-out: CDK6/CCND IC50 (25-250 nM)
[7] = x = IC50 25-250 nM, read-out: CDK4/CCND IC50 (25-250 nM)

Chain of CDK4/CCND3 (P11802 whole entry): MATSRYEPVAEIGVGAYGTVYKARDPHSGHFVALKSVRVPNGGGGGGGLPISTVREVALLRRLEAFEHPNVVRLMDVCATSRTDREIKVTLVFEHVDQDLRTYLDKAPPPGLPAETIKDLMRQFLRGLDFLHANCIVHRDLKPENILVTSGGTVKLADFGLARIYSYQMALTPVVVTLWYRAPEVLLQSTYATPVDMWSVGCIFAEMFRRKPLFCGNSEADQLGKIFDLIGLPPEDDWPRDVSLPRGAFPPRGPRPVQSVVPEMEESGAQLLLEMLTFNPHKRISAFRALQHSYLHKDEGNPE
Chain of CDK4/CCND3 (P30281 whole entry partner): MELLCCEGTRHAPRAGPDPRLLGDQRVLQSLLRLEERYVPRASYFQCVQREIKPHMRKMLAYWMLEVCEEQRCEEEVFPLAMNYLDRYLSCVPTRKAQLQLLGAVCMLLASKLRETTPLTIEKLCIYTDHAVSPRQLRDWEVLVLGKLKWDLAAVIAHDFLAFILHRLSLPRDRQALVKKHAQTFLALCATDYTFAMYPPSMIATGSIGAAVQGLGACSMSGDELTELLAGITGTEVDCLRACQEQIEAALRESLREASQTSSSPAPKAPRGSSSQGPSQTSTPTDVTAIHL
Chain of CDK1/CCNB1 (P06493 whole entry): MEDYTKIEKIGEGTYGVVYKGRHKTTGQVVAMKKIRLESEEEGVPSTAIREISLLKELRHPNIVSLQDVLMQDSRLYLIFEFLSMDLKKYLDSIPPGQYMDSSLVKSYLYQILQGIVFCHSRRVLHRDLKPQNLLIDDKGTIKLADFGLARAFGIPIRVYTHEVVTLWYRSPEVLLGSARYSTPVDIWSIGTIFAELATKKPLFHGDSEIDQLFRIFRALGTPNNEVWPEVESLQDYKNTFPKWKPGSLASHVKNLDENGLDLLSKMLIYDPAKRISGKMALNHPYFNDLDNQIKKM
Chain of CDK1/CCNB1 (P14635 whole entry partner): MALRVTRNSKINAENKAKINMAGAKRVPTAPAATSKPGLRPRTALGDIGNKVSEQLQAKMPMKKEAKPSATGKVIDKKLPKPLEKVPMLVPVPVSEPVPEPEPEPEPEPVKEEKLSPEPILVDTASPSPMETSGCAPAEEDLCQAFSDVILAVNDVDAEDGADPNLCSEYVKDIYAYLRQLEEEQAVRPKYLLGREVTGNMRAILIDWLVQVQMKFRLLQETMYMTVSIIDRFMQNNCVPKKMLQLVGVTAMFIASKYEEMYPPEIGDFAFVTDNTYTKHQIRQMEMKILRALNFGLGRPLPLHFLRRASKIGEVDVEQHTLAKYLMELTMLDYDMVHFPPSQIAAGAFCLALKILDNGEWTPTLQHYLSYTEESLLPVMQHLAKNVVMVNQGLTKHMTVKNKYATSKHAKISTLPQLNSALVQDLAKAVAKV
Chain of CDK6/CCND1 (Q00534 whole entry): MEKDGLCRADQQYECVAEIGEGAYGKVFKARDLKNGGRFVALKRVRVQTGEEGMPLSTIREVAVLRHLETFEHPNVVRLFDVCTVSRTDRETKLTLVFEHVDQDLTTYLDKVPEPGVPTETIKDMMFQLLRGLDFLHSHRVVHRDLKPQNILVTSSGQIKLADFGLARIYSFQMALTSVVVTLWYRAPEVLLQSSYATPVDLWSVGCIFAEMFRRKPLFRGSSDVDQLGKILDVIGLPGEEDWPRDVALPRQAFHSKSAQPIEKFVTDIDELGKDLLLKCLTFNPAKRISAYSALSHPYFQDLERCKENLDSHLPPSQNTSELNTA
Chain of CDK6/CCND1 (P24385 whole entry partner): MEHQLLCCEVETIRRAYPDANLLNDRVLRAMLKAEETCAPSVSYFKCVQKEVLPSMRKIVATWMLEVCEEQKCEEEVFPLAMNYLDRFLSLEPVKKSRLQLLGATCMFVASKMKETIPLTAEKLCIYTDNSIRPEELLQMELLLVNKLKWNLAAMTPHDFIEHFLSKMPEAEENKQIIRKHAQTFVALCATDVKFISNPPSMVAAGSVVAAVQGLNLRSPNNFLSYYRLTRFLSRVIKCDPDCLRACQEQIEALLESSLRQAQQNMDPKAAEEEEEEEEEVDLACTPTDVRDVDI

SMILES | IC50 (CDK1/CCNB1; [1]) | IC50 (CDK4/CCND3; [2]) | IC50 (CDK6/CCND1; [3]) | IC50 (CDK2/CCNE1; [4]) | IC50 (CDK2/CCNE1; [5]) | other results
CS(=O)(=O)c1ccc(Nc2cc3c(C#Cc4ccc(Cl)cn4)nccc3cn2)cc1 [Example 544, 5-((5-chloropyridin-2-yl)ethynyl)-N-(4-(methylsulfonyl)phenyl)-2,6-naphthyridin-3-amine] | > 0.25 µM | > 0.25 µM | > 0.25 µM | – | – | IC50 (CDK2/CCNE1; x = IC50 >250 nM, read-out: CDK2/CCNE IC50 (>250 nM column)): > 0.25 µM
CC(C)(O)c1cc2ccc(C#Cc3nccc4cnc(Nc5ccc(S(C)(=O)=O)cc5)cc34)cc2[nH]1 [Example 590, 2-(6-((7-((4-(methylsulfonyl)phenyl)amino)-2,6-naphthyridin-1-yl)ethynyl)-1H-indol-2-yl)propan-2-ol] | > 0.25 µM | > 0.25 µM | > 0.25 µM | 0.025 to 0.25 µM | – | –
COC(=O)c1cc2ccc(C#Cc3nccc4cnc(Nc5ccc(S(C)(=O)=O)cc5)cc34)cc2[nH]1 [Example 594, methyl 6-((7-((4-(methylsulfonyl)phenyl)amino)-2,6-naphthyridin-1-yl)ethynyl)-1H-indole-2-carboxylate] | > 0.25 µM | > 0.25 µM | > 0.25 µM | 0.025 to 0.25 µM | – | –
CS(=O)(=O)c1ccc(Nc2cc3c(C#CC4CCN(Cc5cn[nH]c5)CC4)nccc3cn2)cc1 [Example 603, 5-((1-((1H-pyrazol-4-yl)methyl)piperidin-4-yl)ethynyl)-N-(4-(methylsulfonyl)phenyl)-2,6-naphthyridin-3-amine] | > 0.25 µM | > 0.25 µM | – | – | < 0.025 µM | IC50 (CDK6/CCND1; [6]): 0.025 to 0.25 µM
CC(C)(O)CN1CCc2cc(-c3nccc4cnc(Nc5ccc(S(C)(=O)=O)cc5)cc34)ccc2C1 [Example 629, 2-Methyl-1-(6-(7-((4-(methylsulfonyl)phenyl)amino)-2,6-naphthyridin-1-yl)-3,4-dihydroisoquinolin-2(1H)-yl)propan-2-ol] | > 0.25 µM | > 0.25 µM | – | – | < 0.025 µM | IC50 (CDK6/CCND1; [6]): 0.025 to 0.25 µM
N#Cc1ccc(C#Cc2nccc3cnc(Nc4ccc(S(=O)(=O)CCN5CCOCC5)cc4)cc23)cc1 [Example 661, 4-((7-((4-((2-morpholinoethyl)sulfonyl)phenyl)amino)-2,6-naphthyridin-1-yl)ethynyl)benzonitrile] | > 0.25 µM | > 0.25 µM | > 0.25 µM | 0.025 to 0.25 µM | – | –
Cn1cc(C#Cc2nccc3cnc(Nc4ccc(S(C)(=O)=O)cc4)cc23)ccc1=O [Example 663, 1-Methyl-5-((7-((4-(methylsulfonyl)phenyl)amino)-2,6-naphthyridin-1-yl)ethynyl)pyridin-2(1H)-one] | > 0.25 µM | > 0.25 µM | > 0.25 µM | 0.025 to 0.25 µM | – | –
CS(=O)(=O)c1ccc(Nc2cc3c(C#Cc4ccc(CN5CCOCC5)cc4)nccc3cn2)cc1 [Example 666, N-(4-(methylsulfonyl)phenyl)-5-((4-(morpholinomethyl)phenyl)ethynyl)-2,6-naphthyridin-3-amine] | > 0.25 µM | > 0.25 µM | > 0.25 µM | – | < 0.025 µM | –
C/C=C/S(=O)(=O)c1ccc(Nc2cc3c(N4CCC(C#N)CC4)nccc3cn2)cc1 [Example 670, (E)-1-(7-((4-(prop-1-en-1-ylsulfonyl)phenyl)amino)-2,6-naphthyridin-1-yl)piperidine-4-carbonitrile] | > 0.25 µM | > 0.25 µM | > 0.25 µM | 0.025 to 0.25 µM | – | –
CC(=O)NS(=O)(=O)c1ccc(Nc2cc3c(-c4ccc5c(cnn5CC(O)(C(F)(F)F)C(F)(F)F)c4C)nccc3cn2)cc1 [Example 678, N-((4-((5-(4-methyl-1-(3,3,3-trifluoro-2-hydroxy-2-(trifluoromethyl)propyl)-1H-indazol-5-yl)-2,6-naphthyridin-3-yl)amino)phenyl)sulfonyl)acetamide] | > 0.25 µM | > 0.25 µM | > 0.25 µM | 0.025 to 0.25 µM | – | –
CCN[S@](=N)(=O)c1ccc(Nc2cc3c(-c4ccc5c(cnn5CC(O)(C(F)(F)F)C(F)(F)F)c4C)nccc3cn2)cc1 [Example 682, (S)-N-ethyl-4-((5-(4-methyl-1-(3,3,3-trifluoro-2-hydroxy-2-(trifluoromethyl)propyl)-1H-indazol-5-yl)-2,6-naphthyridin-3-yl)amino)benzenesulfonimidamide] | – | – | – | – | – | IC50 (CDK2/CCNE1; <25 nM, read-out: CDK2/CCNE IC50, <25 nM): < 0.025 µM; IC50 (CDK1/CCNB1; >250 nM, read-out: CDK1/CCNB IC50 >250 nM): > 0.25 µM; IC50 (CDK4/CCND3; 25-250 nM, read-out: CDK4/CCND IC50, 25-250 nM): 0.025 to 0.25 µM; IC50 (CDK6/CCND1; >250 nM, 1 mM ATP, read-out: CDK6/CCND IC50, >250 nM): > 0.25 µM

The next lines start with results.

IC50 (CDK1/CCNB1; [1]) | IC50 (CDK4/CCND3; [2]) | IC50 (CDK6/CCND1; [3]) | IC50 (CDK2/CCNE1; [4]) | IC50 (CDK2/CCNE1; [5]) | SMILES | other results
> 0.25 µM | > 0.25 µM | > 0.25 µM | 0.025 to 0.25 µM | – | Cc1c(-c2nccc3cnc(Nc4ccc(S(C)(=O)=O)cc4)cc23)ncc2[nH]ncc12 [Example 591, 5-(4-methyl-1H-pyrazolo[3,4-c]pyridin-5-yl)-N-(4-(methylsulfonyl)phenyl)-2,6-naphthyridin-3-amine] | –
> 0.25 µM | > 0.25 µM | > 0.25 µM | 0.025 to 0.25 µM | – | CC(Cn1ncc2c(C)c(-c3nccc4cnc(Nc5ccc(S(C)(=O)=O)cc5)cc34)ccc21)=NO [Example 592, 1-(4-methyl-5-(7-((4-(methylsulfonyl)phenyl)amino)-2,6-naphthyridin-1-yl)-1H-indazol-1-yl)propan-2-one oxime] | –
> 0.25 µM | > 0.25 µM | > 0.25 µM | 0.025 to 0.25 µM | – | CC(=O)Nc1cc(Nc2cc3c(-c4ccc5c(cnn5CCO)c4C)nccc3cn2)ccc1S(C)(=O)=O [Example 593, N-(5-((5-(1-(2-hydroxyethyl)-4-methyl-1H-indazol-5-yl)-2,6-naphthyridin-3-yl)amino)-2-(methylsulfonyl)phenyl)acetamide] | –
> 0.25 µM | > 0.25 µM | – | – | < 0.025 µM | Cc1c(-c2nccc3cnc(Nc4ccc(S(C)(=O)=O)cc4)cc23)ccc2c1cnn2CC(O)(C(F)(F)F)C(F)(F)F [Example 595, 1,1,1,3,3,3-hexafluoro-2-((4-methyl-5-(7-((4-(methylsulfonyl)phenyl)amino)-2,6-naphthyridin-1-yl)-1H-indazol-1-yl)methyl)propan-2-ol] | IC50 (CDK6/CCND1; [6]): 0.025 to 0.25 µM
> 0.25 µM | – | – | – | < 0.025 µM | CC(=O)NCCn1cc2c(C)c(-c3nccc4cnc(Nc5ccc(S(C)(=O)=O)cc5)cc34)ccc2n1 [Example 630, N-(2-(4-methyl-5-(7-((4-(methylsulfonyl)phenyl)amino)-2,6-naphthyridin-1-yl)-2H-indazol-2-yl)ethyl)acetamide] | IC50 (CDK4/CCND3; [7]): 0.025 to 0.25 µM; IC50 (CDK6/CCND1; [6]): 0.025 to 0.25 µM
> 0.25 µM | > 0.25 µM | > 0.25 µM | 0.025 to 0.25 µM | – | C=Cc1c(-c2nccc3cnc(Nc4ccc(S(C)(=O)=O)cc4)cc23)ccc2[nH]ncc12 [Example 641, N-(4-(methylsulfonyl)phenyl)-5-(4-vinyl-1H-indazol-5-yl)-2,6-naphthyridin-3-amine] | –
> 0.25 µM | > 0.25 µM | > 0.25 µM | 0.025 to 0.25 µM | – | Cc1c(-c2nccc3cnc(Nc4ccc(S(C)(=O)=O)cc4)cc23)ccc2c1cnn2CC(=O)NC1CCCCC1 [Example 642, N-cyclohexyl-2-(4-methyl-5-(7-((4-(methylsulfonyl)phenyl)amino)-2,6-naphthyridin-1-yl)-1H-indazol-1-yl)acetamide] | –
> 0.25 µM | – | – | – | < 0.025 µM | Cc1c(-c2nccc3cnc(Nc4ccc(S(C)(=O)=O)cc4)cc23)ccc2c1cnn2C(N)=O [Example 659, 4-methyl-5-(7-((4-(methylsulfonyl)phenyl)amino)-2,6-naphthyridin-1-yl)-1H-indazole-1-carboxamide] | IC50 (CDK4/CCND3; [7]): 0.025 to 0.25 µM; IC50 (CDK6/CCND1; [6]): 0.025 to 0.25 µM
> 0.25 µM | > 0.25 µM | > 0.25 µM | 0.025 to 0.25 µM | – | Cc1c(-c2nccc3cnc(Nc4ccc(S(C)(=O)=O)cc4)cc23)ccc2c1cnn2C(=O)NC(C)(C)C [Example 668, N-(tert-butyl)-4-methyl-5-(7-((4-(methylsulfonyl)phenyl)amino)-2,6-naphthyridin-1-yl)-1H-indazole-1-carboxamide] | –
